Read-outs that look alike come from different tables or passages of the source. Bridge positions count the residues as written; N and C are the ends. Square brackets hold non-standard residues; d marks the D form. Ends that are not written are not given here. Peptide text beside a SMILES is read from it. * marks the point of attachment. NHOH = ON*
Legend:
C. elegans iPGM [1] = biological target: T1, C. elegans iPGM (Caenorhabditis elegans, UniProt G5EFZ1); assay: SPR binding kinetics and saturation binding, biotinylated iPGM on Biotin CAPture chip (Biacore S200)
E. coli iPGM [2] = biological target: T2, E. coli iPGM (Escherichia coli, UniProt P37689); assay: as above; details: for koff / kon: LoQ = limit of quantitation
C. elegans iPGM [3] = biological target: T1, C. elegans iPGM; details: read-out: KD, prior estimate; zone boundary analysis from a cross-titration of C. elegans iPGM enzyme versus Ce-2; cited from earlier work
B. malayi iPGM = biological target: T3, B. malayi iPGM (Brugia malayi, UniProt Q4VWF8); assay: biochemical; assay type: binding
T3 sequence (Q4VWF8 1-515): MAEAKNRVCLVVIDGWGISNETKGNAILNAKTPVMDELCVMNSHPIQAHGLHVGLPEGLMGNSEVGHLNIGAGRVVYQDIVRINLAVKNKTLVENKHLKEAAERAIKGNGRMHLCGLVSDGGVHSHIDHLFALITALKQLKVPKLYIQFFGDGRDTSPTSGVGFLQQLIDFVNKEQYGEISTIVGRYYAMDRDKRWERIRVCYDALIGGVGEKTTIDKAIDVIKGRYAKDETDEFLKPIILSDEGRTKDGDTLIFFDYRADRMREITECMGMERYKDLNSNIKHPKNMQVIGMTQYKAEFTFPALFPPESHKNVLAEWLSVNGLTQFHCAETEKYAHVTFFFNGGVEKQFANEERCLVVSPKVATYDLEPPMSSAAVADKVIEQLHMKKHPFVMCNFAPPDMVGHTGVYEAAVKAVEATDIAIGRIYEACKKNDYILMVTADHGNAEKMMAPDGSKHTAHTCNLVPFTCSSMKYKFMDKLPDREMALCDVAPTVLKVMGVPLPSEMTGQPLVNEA

D. immitis iPGM = D. immitis iPGM (Dirofilaria immitis, UniProt F4ZE01); assay: biochemical; details: Di iPGM Ave IC50 (M)
E. coli iPGM [4] = biological target: T2, E. coli iPGM; assay: biochemical
C. elegans iPGM [5] = biological target: T1, C. elegans iPGM; assay: PGM enzyme assay (enolase–pyruvate kinase coupled, Kinase-Glo Plus end point) and IC50 determination; assay type: biochemical; details: for IC50: iPGM ortholog not given
Ce-1 NHOH = biological target: T4, Ce-1 NHOH (synthetic construct, thioether N-8; SMILES …); assay: SPR
T4 chain: {CH2CO}-[dY]DYPGDHCYLYGT-{NHOH}

Ce-2 Thr13Ser = biological target: T5, Ce-2 Thr13Ser (synthetic construct, thioether N-8); assay: SPR
T5 chain: {CH2CO}-[dY]DYPGDYCYLYGSC

Ce-2 = biological target: T6, Ce-2 (synthetic construct, thioether N-8); assay: SPR
T6 chain: {CH2CO}-[dY]DYPGDYCYLYGTC

[6] = SPR, 25 °C, global fit to 1:1 binding model
[7] = SPR, Req hyperbolic fit where steady state reached, else koff/kon
[8] = Supplementary Table 5, SPR, E.c. iPGM

Molecule: CC(C)C[C@H](NC(=O)[C@H](Cc1ccc(O)cc1)NC(=O)[C@@H]1CSCC(=O)N[C@H](Cc2ccc(O)cc2)C(=O)N[C@@H](CC(=O)O)C(=O)N[C@@H](Cc2ccc(O)cc2)C(=O)N2CCC[C@H]2C(=O)NCC(=O)N[C@@H](CC(=O)O)C(=O)N[C@@H](Cc2ccc(O)cc2)C(=O)N1)C(=O)N[C@@H](Cc1ccc(O)cc1)C(=O)NCC(=O)N[C@H](C(=O)N[C@@H](CS)C(N)=O)[C@@H](C)O [Ce-2]
- Kd (C. elegans iPGM [1]): 0.0382 nM
- koff (C. elegans iPGM [1]): 3.23e-05 s⁻¹
- kon (C. elegans iPGM [1]): 1.11e+06 M⁻¹ s⁻¹
- koff (C. elegans iPGM [1]; [6]): 3.2e-05 s⁻¹
- kon (C. elegans iPGM [1]; [6]): 1.1e+06 M⁻¹ s⁻¹
- koff (E. coli iPGM [2]; SPR, 25 °C, global fit to 1:1 binding model, read-out: koff): 0.0048 s⁻¹
- kon (E. coli iPGM [2]; SPR, 25 °C, global fit to 1:1 binding model, read-out: kon): 100000 M⁻¹ s⁻¹
- Kd (E. coli iPGM [2]; [7]): ~0.07 µM
- koff (E. coli iPGM [2]; [8]): 0.00484 s⁻¹
- kon (E. coli iPGM [2]; [8]): 102000 M⁻¹ s⁻¹
- Kd (E. coli iPGM [2]; Supplementary Table 5, SPR, E.c. iPGM, unit inferred): 0.0692 µM
- Kd (C. elegans iPGM [3]): 0.07 nM
- koff (B. malayi iPGM): 0.000224 s⁻¹
- kon (B. malayi iPGM): 482000 M⁻¹ s⁻¹
- Kd (B. malayi iPGM; [7]): 0.0005 µM
- Kd (B. malayi iPGM; Supplementary Table 5, SPR, B.m. iPGM, unit inferred): 0.00047 µM
- koff (B. malayi iPGM; [6]): 0.00022 s⁻¹
- kon (B. malayi iPGM; [6]): 480000 M⁻¹ s⁻¹
- IC50 (D. immitis iPGM): 8.27e-10 M
- IC50 (E. coli iPGM [4]; IC50): > 0.1 µM
- IC50 (E. coli iPGM [4]; […]): 0.129 µM

Molecule: CC(C)C[C@@H]1NC(=O)[C@H](Cc2ccc(O)cc2)NC(=O)[C@H](CS)NC(=O)[C@H](Cc2ccc(O)cc2)NC(=O)[C@H](CC(=O)O)NC(=O)CNC(=O)[C@@H]2CCCN2C(=O)[C@H](Cc2ccc(O)cc2)NC(=O)[C@H](CC(=O)O)NC(=O)[C@@H](Cc2ccc(O)cc2)NC(=O)CSC[C@@H](C(N)=O)NC(=O)[C@H]([C@@H](C)O)NC(=O)CNC(=O)[C@H](Cc2ccc(O)cc2)NC1=O [Ce-2 [Y1-->C14]]
- IC50 (D. immitis iPGM): 6.52e-06 M
- inhibitory activity (C. elegans iPGM [5]): inactive

Molecule: CC[C@H](C)[C@H](NC(=O)[C@H](Cc1ccc(O)cc1)NC(=O)[C@@H]1CSCC(=O)N[C@H](Cc2ccc(O)cc2)C(=O)N[C@@H](CC(=O)O)C(=O)N[C@@H](Cc2ccc(O)cc2)C(=O)N2CCC[C@H]2C(=O)NCC(=O)N[C@@H](CC(=O)O)C(=O)N[C@@H](Cc2ccc(O)cc2)C(=O)N1)C(=O)N[C@@H](Cc1ccc(O)cc1)C(N)=O [Ce-2d L10I]
- IC50 (D. immitis iPGM): 5.03e-07 M
- IC50 (C. elegans iPGM [5]; IC50, text, C. elegans by contrast with nematode orthologs): 0.025 µM

Molecule: CC(=O)N[C@@H](Cc1ccc(O)cc1)C(=O)NCC(=O)N[C@H](C(=O)N[C@@H](CS)C(N)=O)[C@@H](C)O [Ac-YGTCNH2, Ac-YGTC-CONH2] (Ac-YGTC-NH2)
- IC50 (D. immitis iPGM): > 0.001 M
- IC50 (C. elegans iPGM [5]; IC50, metal-ion–coordinating sequence alone): > 500 µM

B1: iPGM (protein)
chain: MAEAKNRVCLVVIDGWGISNETKGNAILNAKTPVMDELCVMNSHPIQAHGLHVGLPEGLMGNSEVGHLNIGAGRVVYQDIVRINLAVKNKTLVENKHLKEAAERAIKGNGRMHLCGLVSDGGVHSHIDHLFALITALKQLKVPKLYIQFFGDGRDTSPTSGVGFLQQLIDFVNKEQYGEISTIVGRYYAMDRDKRWERIRVCYDALIGGVGEKTTIDKAIDVIKGRYAKDETDEFLKPIILSDEGRTKDGDTLIFFDYRADRMREITECMGMERYKDLNSNIKHPKNMQVIGMTQYKAEFTFPALFPPESHKNVLAEWLSVNGLTQFHCAETEKYAHVTFFFNGGVEKQFANEERCLVVSPKVATYDLEPPMSSAAVADKVIEQLHMKKHPFVMCNFAPPDMVGHTGVYEAAVKAVEATDIAIGRIYEACKKNDYILMVTADHGNAEKMMAPDGSKHTAHTCNLVPFTCSSMKYKFMDKLPDREMALCDVAPTVLKVMGVPLPSEMTGQPLVNEA
- Kd (Ce-1 NHOH): 0.012 µM
- Kd (Ce-2 Thr13Ser): 0.085 nM
- Kd (Ce-2): 0.0005 µM

From paper PMC8113725, “Structure–activity relationship of ipglycermide binding to phosphoglycerate mutases” (The Journal of Biological Chemistry, 2021)
